Results taken from patent US12691070B2, “Cationic lipids and preparation method thereof” (RiboX Therapeutics HK Limited, priority 2023, dated 2026).

Key:
[1] = tested on: RAW 264.7 cells; test: In vitro toxicity (CellTiter-Glo cell viability), RAW 264.7; type: cell-based;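 further: percent of untreated cells luminescence signal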
Procedure, shortened: (§1)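 RNA-LNPs 1 μg/mL; 72 h post-transfection; CellTiter-Glo luminescence read-out; % viability calculated from signal.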

[2] = LNP size and polydispersity index (PDI) by dynamic light scattering; type: physicochemical; conditions: for Size: in nm (unit assumed)
Procedure, shortened: (§2)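 Ribogreen fluorescence with and without Triton X-100 gave encapsulation as 100% − (intact/lysed) signal; DLS size, PDI and zeta potential measured on a Zetasizer. Particles: 50:10:38.5:1.5 lipid mix, luciferase circRNA or mRNA, lipid:nucleotide 15 or 6, microfluidic assembly at pH 4.5, PBS-dialyzed.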

[3] = tested on: BALB/C mice; test: In vivo expression, whole-body luminescence (IVIS)
Method: 6-8 week old, female BALB/C mice were injected with 0.05 mg*kg-1 of RNA-LNPs encoding for firefly-luciferase by intravenous injection. At 6 hours post injection, animals were intraperitoneally injected with 15 mg/ml of Luciferin substrate and whole-body luminescence was determined by a bioluminescent in vivo imaging system (IVIS).

[4] = LNP zeta potential (Zetasizer); type: physicochemical
Procedure, shortened: as §2

[5] = tested on: Hep G2 cells; test: In vitro toxicity (CellTiter-Glo cell viability), Hep G2; type: cell-based;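 further: percent of untreated cells luminescence signal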
Procedure, shortened: as §1

[6] = tested on: RAW 264.7 cells; test: In vitro expression of firefly-luciferase, RAW 264.7; type: cell-based
Procedure, shortened: (§3)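 Both cell lines receive RNA-LNPs carrying firefly-luciferase RNA at 100 ng/mL. Lysis follows washing at 72 h post-transfection, and luciferase activity is then quantified on a luminometer using a commercial luciferase assay reagent.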

[7] = tested on: MCP-I; test: MCP-I cytokine elevation in serum; type: in vivo; conditions: cirRNA (SEQ ID NO: 1) LNPs, mice
Method: 6-8 week old, female BALB/C mice were injected with 0.5 mg*kg-1 of RNA LNPs by intravenous injection. At 2 and 24 hours post injection, animals were bled and sera concentrations of MCP-I were determined by an immunoassay (Luminex).

[8] = tested on: Hep G2 cells; test: In vitro expression of firefly-luciferase, Hep G2; type: cell-based
Procedure, shortened: as §3

[9] = tested on: BALB/C mice; test: Local tolerance determination by footpad injection; type: in vivo; conditions: cirRNA (SEQ ID NO: 1) LNP, 0.175 mg*kg-1 subcutaneous into the footpad, 24 hours post minus prior
Method: 6-8 week old, female BALB/C mice were injected with 0.175 mg*kg-1 RNA LNPs by subcutaneous injection into the footpad. Prior to, and 24 hours post injections, injected footpad thickness was determined by a caliper.

[10] = RNA encapsulation efficacy by Quant-IT Ribogreen kit; type: physicochemical; conditions: for Encapsulation Efficiency %: LNP with cirRNA (SEQ ID NO: 1)
Procedure, shortened: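 Ribogreen read-out: encapsulation = 100% − (signal of intact RNA-LNPs / signal with Triton X-100). Particles: ionizable lipid:DSPC:Chol:DMG-PEG2000 50:10:38.5:1.5, ionizable lipid:ribonucleotide 15 or 6, final lipid 1.5–6 mM, PBS-dialyzed.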

[11] = tested on: Alanine Aminotransferase (ALT); test: Liver enzyme elevation in serum, ALT; type: in vivo; conditions: cirRNA (SEQ ID NO: 1) LNPs, BALB/C mice, intravenous 0.5 MPK
Method: (§4) 6-8 week old, female BALB/C mice were injected with 0.5 mg*kg-1 of RNA LNPs by intravenous injection. At 2 and 24 hours post injection, animals were bled and sera concentrations of Alanine Aminotransferase (ALT) and Aspartate Aminotransferase (AST) were determined by a blood chemistry analyzer.

[12] = tested on: Aspartate Aminotransferase (AST); test: Liver enzyme elevation in serum, AST; type: in vivo; conditions: cirRNA (SEQ ID NO: 1) LNPs, BALB/C mice, intravenous 0.5 MPK
Method: as §4

[13] = cirRNA (SEQ ID NO: 1) LNPs, RAW 264.7 cells
[14] = mRNA (SEQ ID NO: 2) LNP, 1 μg/mL, 72 hours post transfection
[15] = cirRNA (SEQ ID NO: 1) LNPs, BALB/C mice
[16] = cirRNA (SEQ ID NO: 1) LNPs, Hep G2 cells
[17] = cirRNA (SEQ ID NO: 1) LNPs, firefly-luciferase luminescence, RAW 264.7 cells
[18] = mRNA (SEQ ID NO: 2) LNP, 100 ng/mL, 72 hours post transfection, luciferase activity
[19] = cirRNA (SEQ ID NO: 1) LNPs, firefly-luciferase luminescence, Hep G2 cells

| Structure (SMILES) | In vitro Viability RAW [1, 13] [%] | PDI ([2]; LNP with cirRNA (SEQ ID NO: 1)) | Size ([2]; LNP with cirRNA (SEQ ID NO: 1)) | In vivo Expression (Whole Body) [3, 15] | Zeta (mV) ([4]; LNP with cirRNA (SEQ ID NO: 1)) | In vitro Viability HepG2 [5, 16] [%] | In vitro Expression RAW [6, 17] | In vitro Expression HepG2 [8, 19] | Encapsulation Efficiency % [10] [%] | further results |
| --- | --- | --- | --- | --- | --- | --- | --- | --- | --- | --- |
| CCCCCCCCC(CCCCCCCC)OC(=O)CCCCCCCN(CCCCCCCCOC(=O)C(CCCCCC)CCCCCCCC)CCCOC(=O)NCCCN(C)C (stereo not shown) [Lipid 348] | 73 | 0.2546 | 100.8 | 6.47E+07 | 1.734 | 65 | 2.47E+05 | 1.59E+06 | 98 | In vitro Viability RAW [1, 14]: 77%; PDI ([2]; LNP with mRNA (SEQ ID NO: 2)): 0.1488; Size ([2]; LNP with mRNA (SEQ ID NO: 2)): 101.8; In vivo Expression (Whole Body) ([3]; mRNA (SEQ ID NO: 2) LNP, 0.05 mg*kg-1 intravenous, 6 hours post injection): 1.87E+07; Zeta (mV) ([4]; LNP with mRNA (SEQ ID NO: 2)): 8.774 mV; In vitro Viability HepG2 [5, 14]: 60%; In vitro Expression RAW [6, 18]: 2.52E+03; MCP-I in Sera 2 hours After 0.5 MPK Injection ([7]; 2 hours): 1894.33 pg/mL; MCP-I in Sera 24 hours After 0.5 MPK Injection ([7]; 24 hours): 128.60 pg/mL; In vitro Expression HepG2 [8, 18]: 1.45E+07; Footpad Thickness (24 h−0 h, mm) [9]: 0.78 mm; Encapsulation Efficiency ([10]; LNP with mRNA (SEQ ID NO: 2)): 83.15%; ALT in Sera (IU/L) 2 hours After 0.5 MPK Injection ([11]; 2 hours): 82.33 IU/L; ALT in Sera (IU/L) 24 hours After 0.5 MPK Injection ([11]; 24 hours): 96.33 IU/L; AST in Sera (IU/L) 2 hours After 0.5 MPK Injection ([12]; 2 hours): 307.00 IU/L; AST in Sera (IU/L) 24 hours After 0.5 MPK Injection ([12]; 24 hours): 148.00 IU/L |
| CCCCCCCC/C=C\CCCCCCCCN(CCCCCCCCOC(=O)C(CCCCCC)CCCCCCCC)CCOC(=O)NCCN1CCOCC1 (stereo not shown) [Lipid 215] | 86 | 0.05226 | 62.22 | 1.61E+07 | −3.755 | 85 | 7.31E+03 | 5.62E+04 | 96 |  |
| CCCCCCCCC(CCCCCC)C(=O)OCCCCCCCCN(CCCCCCCCOC(=O)C(CCCCCC)CCCCCCCC)CCCOC(=O)NCCN1CCCC1 (stereo not shown) [Lipid 379] | 72 | 0.1919 | 117.2 | 2.86E+07 | 3.38 | 45 | 1.60E+06 | 1.16E+07 | 92 |  |
| CCCCC/C=C\CCOC(=O)CCCCCN(CCCCCCCCOC(=O)C(CCCCCC)CCCCCCCC)CCOC(=O)NCCCN(CC)CC (stereo not shown) [Lipid 186] | 0 | 0.4618 | 122.7 | 2.96E+06 | 14.31 | 88 | 2.82E+02 | 1.51E+05 | 90 |  |
| CCCCCCCCCCC(CCCCCCCC)COC(=O)CCCCCN(CCCCCCCCOC(=O)C(CCCCCC)CCCCCCCC)CCCOC(=O)NCCN(C)C (stereo not shown) [Lipid 364] | 64 | 0.2481 | 113.5 | 4.73E+06 | 0.2395 | 81 | 9.94E+04 | 1.11E+06 | 89 |  |
| CCCCCCOC(=O)CCCCCCCCCCN(CCCCCCCCCCC(=O)OCCCCCC)CCOC(=O)NCCCN(CC)CC [Lipid 137, hexyl 3-ethyl-12-(11-(hexyloxy)-11-oxoundecyl)-8-oxo-9-oxa-3,7,12-triazatricosan-23-oate] | 9 | 0.1423 | 224.1 | 1.84E+05 | 19.29 | 12 | 1.21E+02 | 1.57E+03 | 92 |  |
| CCCCC/C=C\C/C=C\CCCCCCCCN(CCCCCCCC(=O)OC(CCCCCCCC)CCCCCCCC)CCCOC(=O)NCCCN(C)C [Lipid 275] | 129 | 0.2727 | 60 | 3.66E+06 | 6.337 | 102 | 4.30E+05 | 7.54E+06 | 95 |  |
| CCCCC/C=C\C/C=C\CCCCCCCCN(CCCCCCCC(=O)OC(CCCCCCCC)CCCCCCCC)CCCOC(=O)NCCCN(CC)CC [Lipid 272] | 121 | 0.3463 | 74.91 | 6.35E+06 | 5.434 | 97 | 1.34E+06 | 1.01E+07 | 95 |  |
| CCCCC/C=C\C/C=C\CCCCCCCCN(CCCCCCCC(=O)OC(CCCCCCCC)CCCCCCCC)CCOC(=O)NCCCn1ccnc1 [Lipid 133, heptadecan-9-yl 8-((2-(((3-(1H-imidazol-1-yl)propyl)carbamoyl)oxy)ethyl)((9Z,12Z)-octadeca-9,12-dien-1-yl)amino)octanoate] | 27 | 0.0973 | 92.91 | 2.04E+08 | 2.957 | 13 | 8.30E+04 | 4.26E+04 | 95 |  |
